These compounds were tested against T1, purified human Factor XIa (Homo sapiens, UniProt P03951) (assay: Factor XIa Assay (hydrolysis of fluorogenic substrate Z-Gly-Pro-Arg-AFC)). Conditions: purified human Factor XIa 40 pM; Z-Gly-Pro-Arg-AFC 100 μM; 50 mM HEPES pH 7.4; read-out: Factor XIa Inhibition (IC50 (nM)).
T1 construct: Determinations were made using purified human Factor XIa; purchased Sekisui Diagnostics
Assay type: biochemical
Description: The effectiveness of compounds of the present invention as inhibitors of Coagulation Factor XIa can be determined using a relevant purified serine protease, and an appropriate synthetic substrate. The rate of hydrolysis of the chromogenic or fluorogenic substrate by the relevant serine protease was measured both in the absence and presence of compounds of the present invention. Assays were conducted at room temperature or at 37° C. […] A decrease in the rate of fluorescence change in the presence of inhibitor is indicative of enzyme inhibition. Such methods are known to one skilled in the art. […]
Factor XIa determinations were made in 50 mM HEPES buffer at pH 7.4 containing 150 mM NaCl, 5 mM CaCl2, and 0.1% PEG 8000 (polyethylene glycol; JT Baker or Fisher Scientific). Determinations were made using purified human Factor XIa at a final concentration of 40 pM (Sekisui Diagnostics) and the synthetic substrate, Z-Gly-Pro-Arg-AFC, TFA salt (Sigma #C0980) at a concentration of 100 μM.
Times required to achieve equilibration between enzyme and inhibitor were determined in control experiments. Initial velocities of product formation in the absence (Vo) or presence of inhibitor (Vi) were measured. Assuming competitive inhibition, and that unity is negligible compared Km/[S], [I]/e, and [I]/e (where [S], [I], and e respectively represent the total concentrations, of substrate, inhibitor and enzyme), the equilibrium constant (Ki) for dissociation of the inhibitor from the enzyme can be obtained from the dependence of Vo/Vi on [I] shown in the following equation.

T1 sequence (P03951 388-625 limits assumed): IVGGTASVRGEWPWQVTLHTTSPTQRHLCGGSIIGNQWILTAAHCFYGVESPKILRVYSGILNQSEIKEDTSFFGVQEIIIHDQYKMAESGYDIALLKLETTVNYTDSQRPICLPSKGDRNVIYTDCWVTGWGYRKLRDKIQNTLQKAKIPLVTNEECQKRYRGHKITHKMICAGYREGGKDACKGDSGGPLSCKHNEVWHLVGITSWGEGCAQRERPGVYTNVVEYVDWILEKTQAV
T1 sequence (P03951 19-387 partner limits assumed): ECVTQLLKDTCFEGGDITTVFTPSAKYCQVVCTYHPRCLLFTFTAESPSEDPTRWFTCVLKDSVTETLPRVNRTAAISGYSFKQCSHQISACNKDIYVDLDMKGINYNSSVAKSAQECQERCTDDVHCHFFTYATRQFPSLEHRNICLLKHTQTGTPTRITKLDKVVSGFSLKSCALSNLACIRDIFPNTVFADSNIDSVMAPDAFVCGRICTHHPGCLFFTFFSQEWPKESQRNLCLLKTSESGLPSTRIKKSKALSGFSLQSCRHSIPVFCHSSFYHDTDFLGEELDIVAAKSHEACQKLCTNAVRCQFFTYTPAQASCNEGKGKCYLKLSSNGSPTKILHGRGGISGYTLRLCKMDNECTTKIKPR

C[C@@H]1C[C@H](C2CCNCC2)CN(C(=O)c2ccc(CN)c(C3CC3)c2)[C@@H]1C(=O)Nc1ccc(C(=O)O)cc1 [Example 25, 4-((3R,5R,6S)-1-(4-(aminomethyl)-3-cyclopropylbenzoyl)-5-methy-1-[3,4′-bipiperidine]-6-carboxamido) benzoic acid] and COC(=O)Nc1ccc(-c2c[nH]c(C3C(c4ccc(F)cc4)CC(C4CCNCC4)CN3C(=O)/C=C/c3cc(Cl)ccc3-n3cnnn3)n2)cc1 (stereo not drawn) [Example 27, methyl (4-{2-[1-{(2E)-3-[5-chloro-2-(1H-tetrazol-1-yl)phenyl]prop-2-enoyl}-5-(4-fluorophenyl)-3,4′-bipiperidin-6-yl]-1H-imidazol-4-yl}phenyl)car-bamate] are within 1.5-fold of each other in IC50: 519 nM for the first, 710 nM for the second.

Compared with O=C(Nc1ccc2[nH]ncc2c1)[C@@H]1[C@H](c2ccc(F)cc2)C[C@H](N2CCOCC2)CN1C(=O)/C=C/c1cc(Cl)ccc1-n1cnnn1 [Example 29, (2S,3S,5S)-1′-{(2E)-3-[5-Chloro-2-(1H-tetrazol-1-yl)phenyl]prop-2-enoyl}-3-(4-fluorophenyl)-N-1H-indazol-5-yl-5-morpholin-4-ylpiperidine-2-carboxamide], O=C(Nc1ccc2[nH]ncc2c1)[C@H]1[C@@H](c2ccc(F)cc2)C[C@@H](N2CCNCC2)CN1C(=O)/C=C/c1cc(Cl)ccc1-n1cnnn1 [Example 30, (2R,3R,5R)-1-{(2E)-3-[5-chloro-2-(1H-tetrazol-1-yl)phenyl]prop-2-enoyl}-3-(4-fluorophenyl)-N-1H-indazol-5-yl-5-piperazin-1-ylpiperidine-2-carboxamide] is 9.5-fold higher in IC50: 81.1 nM for the first, 767 nM for the second.

Going from O=C(Nc1ccc2[nH]ncc2c1)[C@@H]1[C@H](c2ccc(F)cc2)C[C@H](N2CCNCC2)CN1C(=O)/C=C/c1cc(Cl)ccc1-n1cnnn1 [Example 31, (2S,3S,5S)-1-{(2E)-3-[5-chloro-2-(1H-tetrazol-1-yl)phenyl]prop-2-enoyl}-3-(4-fluorophenyl)-N-1H-indazol-5-yl-5-piperazin-1-ylpiperidine-2-carboxamide] to CC(=O)N1CCN([C@H]2C[C@@H](c3ccc(F)cc3)[C@@H](C(=O)Nc3ccc4[nH]ncc4c3)N(C(=O)/C=C/c3cc(Cl)ccc3-n3cnnn3)C2)CC1 [Example 32, (2S,3S,5S)-5-(4-acetylpiperazin-1-yl)-1-{(2E)-3-[5-chloro-2-(1H-tetrazol-1-yl)phenyl]prop-2-enoyl}-3-(4-fluorophenyl)-N-1H-indazol-5-ylpiperidine-2-carboxamide], the IC50 rises from 40.9 nM to 72.2 nM (1.8-fold). The first is the more potent here.

From patent US10239863B2, “Factor XIa inhibitors” (Merck Sharp & Dohme Corp., priority 2013, dated 2019)
